Among the data in ChEMBL document CHEMBL3044938, “Chromatographic separation and in vitro activity of sorgoleone congeners from the roots of sorghum bicolor” (J Agric Food Chem, 2003) are IC50 values, retold here.

Molecules are shown by their SMILES.

This assay concerns the target Photosystem II protein D1 (Spinacia oleracea, UniProt P69560). As to the kind of experiment: Inhibition of photosystem II mediated oxygen evolution in Spinacia oleracea (spinach) thylakoid measured for 25 sec. The conditions noted are these: read-out: I50.
On to `C=CC/C=C\C/C=C\CCCCCCCC1=C(O)C(=O)C=C(OC)C1=O` [SORGOLEONE], for which the IC50 came out at 0.065 µM.
The value for `CCC/C=C\C/C=C\CCCCCCCC1=C(O)C(=O)C=C(OC)C1=O` [Sorgoleone-360] was 0.104 µM; that for `CCCCCCCCCCCCCC1=C(O)C(=O)C=C(OC)C1=O` [Sorgoleone-364] was 0.103 µM; that for `CCCCCC/C=C\CCCCCCCC1=C(O)C(=O)C=C(OC)C1=O` [Sorgoleone-362] was 0.109 µM.
